Measurements from patent US12391683B2, “Therapeutic compounds and methods” (Actio Biosciences, Inc., priority 2022, dated 2025).

Assays:
[1] = target: T1, TRPV2 channels (Homo sapiens, UniProt Q9Y5S1); assay: TRP Family FLIPR Assay, TRPV2; type: cell-based; settings: HEK293 cells (transient)
T1 construct: expressed in transfected cells; host or cells: HEK293 (transient)
T1 sequence (Q9Y5S1 1-764): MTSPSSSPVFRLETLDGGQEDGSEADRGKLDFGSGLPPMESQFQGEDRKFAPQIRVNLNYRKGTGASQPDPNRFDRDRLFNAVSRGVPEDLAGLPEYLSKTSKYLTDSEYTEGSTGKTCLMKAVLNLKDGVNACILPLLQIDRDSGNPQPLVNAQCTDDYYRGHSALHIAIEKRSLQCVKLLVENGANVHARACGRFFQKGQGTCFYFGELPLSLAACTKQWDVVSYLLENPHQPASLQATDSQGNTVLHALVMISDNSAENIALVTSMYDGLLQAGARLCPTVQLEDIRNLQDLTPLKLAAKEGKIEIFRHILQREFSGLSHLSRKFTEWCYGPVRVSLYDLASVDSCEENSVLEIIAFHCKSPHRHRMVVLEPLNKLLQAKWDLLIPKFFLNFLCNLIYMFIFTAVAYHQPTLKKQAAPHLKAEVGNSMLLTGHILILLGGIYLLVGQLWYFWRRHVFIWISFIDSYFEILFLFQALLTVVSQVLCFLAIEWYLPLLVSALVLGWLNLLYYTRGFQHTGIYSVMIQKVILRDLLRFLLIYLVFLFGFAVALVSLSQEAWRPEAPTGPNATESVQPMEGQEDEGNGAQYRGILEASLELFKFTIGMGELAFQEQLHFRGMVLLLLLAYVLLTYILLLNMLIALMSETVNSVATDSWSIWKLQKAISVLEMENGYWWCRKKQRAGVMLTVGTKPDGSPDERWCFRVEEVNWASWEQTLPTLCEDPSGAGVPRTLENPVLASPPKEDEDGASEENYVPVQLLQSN
Method: (§1) The compound of Example 5 was tested for selectivity against a panel of Human TRP family ion channels in a TRP Family FLIPR Assay as described below. • 1. TRPC3 channels (human TRPC3 variant 1 gene, expressed in HEK293 cells). • 2. TRPC4 channels (human TRPC4 gene, expressed in HEK293 cells). • 3. TRPC5 channels (human TRPC5 gene, expressed in HEK293 cells). • 4. TRPC6 channels (human TRPC6 gene, expressed in HEK293 cells). • 5. TRPM2 channels (human TRPM2 gene, transiently expressed in HEK293 cells). • 6. TRPM3 channels (human TRPM3 gene, transiently expressed in HEK293 cells). • 7. TRPM4 channels (human TRPM4 gene, expressed in CHO cells). • 8. […]
(§2) Data acquisition was performed via the FLIPR Control software supplied with the FLIPR System (MDS-AT) and data was analyzed using Microsoft Excel (Microsoft Corp., Redmond, WA) or GraphPad Prism. […]
(§3) [formula] where Base is the response at low concentrations of test article, Max is the maximum response at high concentrations, xhalf the EC50, or IC50, the concentration of test article producing either half-maximal activation or inhibition, and rate is the Hill coefficient. […] No assumptions about the fit parameters was made; the fit parameters were determined by the algorithm.
(§4) The effect of each test article was evaluated at eight (8) concentrations: 0.003, 0.01, 0.03, 0.1, 0.3, 1, 3 and 10 μM, n≤4 wells/concentration). […]

[2] = target: T2, TRPV1 channels (Homo sapiens, UniProt Q8NER1); assay: TRP Family FLIPR Assay, TRPV1; type: cell-based; settings: HEK293 cells
T2 construct: expressed in transfected cells; host or cells: HEK293
Method: as §1, §2, §3, §4

T2 sequence (Q8NER1 whole entry): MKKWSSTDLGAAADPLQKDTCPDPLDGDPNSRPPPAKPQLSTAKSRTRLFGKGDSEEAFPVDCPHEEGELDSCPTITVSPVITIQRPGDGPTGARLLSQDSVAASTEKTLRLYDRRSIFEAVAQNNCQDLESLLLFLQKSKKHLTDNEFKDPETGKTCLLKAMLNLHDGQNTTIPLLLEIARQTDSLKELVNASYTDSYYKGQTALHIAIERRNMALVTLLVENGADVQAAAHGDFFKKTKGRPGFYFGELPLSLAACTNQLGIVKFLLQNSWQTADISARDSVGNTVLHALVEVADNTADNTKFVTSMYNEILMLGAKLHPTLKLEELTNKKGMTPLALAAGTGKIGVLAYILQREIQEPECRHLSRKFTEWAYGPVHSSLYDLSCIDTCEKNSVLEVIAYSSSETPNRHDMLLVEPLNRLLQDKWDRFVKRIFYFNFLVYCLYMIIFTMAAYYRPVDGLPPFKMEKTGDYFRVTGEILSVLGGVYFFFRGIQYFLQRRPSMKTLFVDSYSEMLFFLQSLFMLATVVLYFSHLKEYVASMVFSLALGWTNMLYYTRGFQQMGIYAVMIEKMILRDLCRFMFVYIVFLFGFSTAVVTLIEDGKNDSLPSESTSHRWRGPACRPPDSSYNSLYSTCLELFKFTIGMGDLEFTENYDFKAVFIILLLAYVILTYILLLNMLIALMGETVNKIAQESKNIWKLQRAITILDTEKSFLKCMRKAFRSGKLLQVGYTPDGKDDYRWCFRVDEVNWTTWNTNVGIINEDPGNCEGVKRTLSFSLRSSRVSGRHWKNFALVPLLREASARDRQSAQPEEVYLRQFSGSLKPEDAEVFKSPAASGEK

CC(C)(O)c1cnc(N2C[C@@]3(CC[C@@H](F)[C@](C)(Cn4cnc5ccc(C#N)cc54)C3)OC2=O)cn1 (single isomer, unassigned) [Example 5]
> 10 µM: EC50 ([1]; agonist mode, vs EMAX of cannabidiol 300 μM, read-out: EC50 hTRPV2) | IC50 ([1]; antagonist mode, activated with capsaicin 100 μM, 0.003-10 μM, read-out: IC50 hTRPV2) | EC50 ([2]; agonist mode, vs EMAX of capsaicin 1 μM, read-out: EC50 hTRPV1) | IC50 ([2]; antagonist mode, activated with capsaicin 0.1 μM, 0.003-10 μM, read-out: IC50 hTRPV1)
